Where two headings read alike, the source gives them in different places.
Key:
p38MAPK = experiment: Western blotting of cell lysates with anti-phospho-p38 antibody; format: cell-based, mouse; conditions: B16-Ova cells
[1] = Cell viability (survival) assay with CellTiter-Glo, 48 hours; format: cell-based, mouse; conditions: mouse, B16F10 melanoma tumor cells, 48 hours, normalized to DMSO-treated control cells
Description: (§1) For assays of survival, 15,000 cells were plated per well in a 96-well plate in 100 μl media with 5 replicates per condition. Wells along the four edges of the plate were not used. Following cell attachment, the indicated drugs were added in an equal volume of media, and incubated for an additional 48 hours. The media was then removed and replaced with 100 ul of fresh media at room temperature. Following a 30 minute incubation at room temperature, 50 μl of CellTiter-Glo reagent was added, followed by 2 minutes of gentle mixing. The plate was incubated at room temperature for an additional 10 minutes. 100 μl of supernatant was transferred to a 96-well white opaque plate and luminescence was read on a Tecan microplate reader. Values were normalized to those of DMSO-treated control cells.

B16-Ova cells [2] = experiment: Calreticulin surface exposure by flow cytometry; conditions: for CALR (%): 24 hours after treatment, representative experiment
MC-38-Ova cells = experiment: In vitro cross presentation assay: drug-treated MC-38-Ova cells, BMDC and OT-1 CD8+ T-cells; format: cell-based, mouse
Description: (§2) B16-Ova or MC-38 Ova cells were treated with various doses of chemotherapeutic drugs for 24 h followed by extensive washing in IMDM (10% FBS, P/S). Subsequently 1×10^6 treated cells were co-cultured with 2.5×10^5 BMDC per well of a 24-well plate for each condition tested. After 24 hours of co-culture, supernatants were removed from each well and the BMDC washed 2-3 times in T-cell media (RPMI containing 10% FBS, 20 mM HEPES, 1 mM sodium pyruvate, 55 uM b-mercaptoethanol, 2 mM L-glutamine, nonessential amino acids and antibiotics). CD8+OT-I T-cells isolated from spleens of OT-I mice were then co-cultured with the BMDC at 125,000 T-cells per well to achieve an effector to target ratio of 0.5. Where indicated, BMDC and/or T-cells were also exposed to chemotherapy drugs. After a 12-15 h incubation, IFN-g producing T-cells were identified and quantified by intra-cellular cytokine staining and flow cytometry using a BD LSR II or Fortessa flow cytometer. Cells were first gated for CD3 expression, then re-gated for CD8 and IFNg expression.

[3] = system: B16F10 melanoma tumor cell line; experiment: Cell death by AnnexinV/DAPI staining 48 hours after drug treatment; format: cell-based, mouse; conditions: for cell death by DAPI and Annexin V staining: at the concentrations used
Description: For assessment of cell death, floating and attached cells were harvested after 48 hours of treatment with the indicated chemotherapeutic drugs. Attached cells were detached using 5 mM EDTA in PBS. The recovered cells were centrifuged at 250×g for 5 minutes, washed once in PBS containing 0.9 mM Ca2+ and 0.5 mM Mg2+ and then stained with AnnV-FITC for 15 minutes in Annexin binding buffer at room temperature according to the manufacturer's protocol (Biolegend). Cells were co-stained with DAPI at a final concentration of 1 μg/ml for 2 minutes in Annexin binding buffer, brought to a final volume of 500 ul using PBS containing 0.9 mM Ca2^+ and 0.5 mM Mg2^+ and analyzed by flow cytometry.
To identify how DNA-damaging chemotherapy could be optimally used to enhance anti-tumor immune function, cytotoxicity assays were performed using the B16F10 melanoma tumor cell line expressing ovalbumin (B16-Ova). Cells were treated with clinically used chemotherapeutic agents followed by assaying for cell death by DAPI and Annexin V staining 48 hours later.

B16-Ova cells [4] = experiment: HMGB1 in cell culture media by ELISA; format: cell-based, mouse; conditions: for HMGB1 (ng/ml) MEAN: culture media 24-48 hours after treatment
Description: Cell-free cell culture media was then analyzed by ELISA for HMGB1 according to the manufacturer's protocol.

B16-Ova cells [5] = experiment: In vitro cross presentation assay: drug-treated B16-Ova cells, BMDC and OT-1 CD8+ T-cells, IFN-γ+ T-cells by flow cytometry; format: cell-based, mouse
Description: as §2
An experimental system was developed to assess dendritic cell-mediated T-cell priming using the B16-Ova cells, in combination with primary bone-marrow derived dendritic cells (BMDC) and OT-I CD8+ T-cells expressing a TCR transgene that specifically recognizes the Ova-derived peptide […] (SEQ ID NO:1) in the context of H2-Kb (OT-1) (Clarke, et al., Immunol Cell Biol., 78(2):110-7 (2000); Hogquist, et al., Cell, 76(1):17-27 (1994)). […] The treated B16-Ova cells/BMDC co-culture was then incubated with purified CD8+ T-cells obtained from the spleens of OT-1 mice, and the appearance of IFNg+CD8 T-cells was measured 12-15 hours later by intracellular staining and subsequent quantification using flow cytometry.

B16-Ova cells [6] = experiment: ATP levels in cell-free culture media by CellTiter-Glo; format: cell-based, mouse; conditions: for ATP (nM) MEAN: culture media 24-48 hours after treatment
Description: For measurement of ATP levels, cell-free culture media obtained as above was analyzed by CellTiter-Glo according to the manufacturer's protocol. Values were converted to ATP concentrations using a standard curve generated using pure ATP.

[7] = system: CT26 mouse colon cancer cells; conditions: previously reported; cited from earlier work
[8] = system: B16F10 melanoma tumor cell line; experiment: Cell viability (survival) assay with CellTiter-Glo, 48 hours; format: cell-based, mouse; conditions: at the concentrations used
Description: as §1

## COc1cccc2c1C(=O)c1c(O)c3c(c(O)c1C2=O)C[C@@](O)(C(=O)CO)C[C@@H]3O[C@H]1C[C@H](N)[C@H](O)[C@H](C)O1 [Dox, doxorubicin]
p38MAPK
  p38MAPK activation: p38MAPK activation
[1]; 10 uM
  viability at 48 h, 10 µM: 0.505%
[1]; 50 uM
  viability at 48 h, 50 µM: 0.126%
B16-Ova cells [2]; 10 uM
  CALR (%): 4.97%
B16-Ova cells [2]; 50 uM
  CALR (%): 2.82%
B16-Ova cells [2]; 24 hours of drug exposure
  level of externalized calreticulin: lowest levels
MC-38-Ova cells; MC-38-Ova cells treated with 10 uM for 24 h
  % CD3+CD8+IFN-γ+ T-cells MEAN: 1.217%
MC-38-Ova cells; MC-38-Ova cells treated with 50 uM for 24 h
  % CD3+CD8+IFN-γ+ T-cells MEAN: 0.08667%
[3]; 10 μM and 50 μM
  cell death: high levels of cell death
[3]; 48 hours
  cell death by DAPI and Annexin V staining: caused varying extents of apoptotic and non-apoptotic cell death
[3]; Mus musculus, B16-F10, 10 uM, 48 hours, read-out: AnnV+DAPI+ (%) Mean
  cytotoxicity at 10 µM: 48%
[3]; Mus musculus, B16-F10, 10 uM, 48 hours, read-out: AnnV+DAPI− (%) Mean
  cytotoxicity at 10 µM: 31.6%
[3]; Mus musculus, B16-F10, 10 uM, 48 hours, read-out: AnnV−DAPI+ (%) Mean
  cytotoxicity at 10 µM: 0.04%
[3]; Mus musculus, B16-F10, 10 uM, 48 hours, read-out: AnnV−DAPI− (%) Mean
  viability at 10 µM: 20.4%
[3]; Mus musculus, B16-F10, 50 uM, 48 hours, read-out: AnnV+DAPI+ (%) Mean
  cytotoxicity at 50 µM: 52.1%
[3]; Mus musculus, B16-F10, 50 uM, 48 hours, read-out: AnnV+DAPI− (%) Mean
  cytotoxicity at 50 µM: 27.1%
[3]; Mus musculus, B16-F10, 50 uM, 48 hours, read-out: AnnV−DAPI+ (%) Mean
  cytotoxicity at 50 µM: 0.04%
[3]; Mus musculus, B16-F10, 50 uM, 48 hours, read-out: AnnV−DAPI− (%) Mean
  viability at 50 µM: 20.8%
B16-Ova cells [4]; 10 uM
  HMGB1 (ng/ml) MEAN: 77.83 ng/mL
B16-Ova cells [4]; 50 uM
  HMGB1 (ng/ml) MEAN: 57.75 ng/mL
B16-Ova cells [4]; 24-48 hours post-treatment window
  HMGB1 release into the media: high levels of HMGB1 release
B16-Ova cells [5]; 0.5 μM and 1.0 μM
  activating cells: effective at activating cells
B16-Ova cells [5]; 10 μM and 50 μM
  activating cells: not effective at activating cells
B16-Ova cells [5]; 10 and 50 uM (Table 3, Table 4)
  inducing DC-mediated IFN-γ in T-cells: ineffective
B16-Ova cells [5]; B16-Ova cells treated with 10 uM for 24 h
  % CD3+CD8+IFN-γ+ T-cells MEAN: 0.13%
B16-Ova cells [5]; B16-Ova cells treated with 50 uM for 24 h
  % CD3+CD8+IFN-γ+ T-cells MEAN: 0.28%
B16-Ova cells [5]; specific doses
  IFN-gamma production in CD8+ T-cells: promote IFN-gamma production in CD8+ T-cells
B16-Ova cells [6]; 10 uM
  ATP (nM) MEAN: 1.11 nM
B16-Ova cells [6]; 50 uM
  ATP (nM) MEAN: 0.83 nM
B16-Ova cells [6]; after 24 hours of treatment
  ATP release: Substantial ATP release
[7]
  immunogenic cell death / calreticulin exposure: induce calreticulin exposure

## CC(=O)O[C@H]1C(=O)[C@@]2(C)[C@H]([C@H](OC(=O)c3ccccc3)[C@]3(O)C[C@H](OC(=O)[C@H](O)[C@@H](NC(=O)c4ccccc4)c4ccccc4)C(C)=C1C3(C)C)[C@]1(OC(C)=O)CO[C@@H]1C[C@@H]2O [Pac, paclitaxel]
[8]
  growth arrest: caused some degree of growth arrest
[1]; 0.2 uM
  viability at 48 h, 0.2 µM: 69.8%
[1]; 1 uM
  viability at 48 h, 1 µM: 74%
[3]; 48 hours
  cell death by DAPI and Annexin V staining: did not induce substantial amounts of cell death
[3]; Mus musculus, B16-F10, 200 nM, 48 hours, read-out: AnnV+DAPI+ (%) Mean
  cytotoxicity at 0.2 µM: 4.79%
[3]; Mus musculus, B16-F10, 200 nM, 48 hours, read-out: AnnV+DAPI− (%) Mean
  cytotoxicity at 0.2 µM: 7.2%
[3]; Mus musculus, B16-F10, 200 nM, 48 hours, read-out: AnnV−DAPI+ (%) Mean
  cytotoxicity at 0.2 µM: 2.18%
[3]; Mus musculus, B16-F10, 200 nM, 48 hours, read-out: AnnV−DAPI− (%) Mean
  viability at 0.2 µM: 85.8%
[3]; Mus musculus, B16-F10, 1 uM, 48 hours, read-out: AnnV+DAPI+ (%) Mean
  cytotoxicity at 1 µM: 2.98%
[3]; Mus musculus, B16-F10, 1 uM, 48 hours, read-out: AnnV+DAPI− (%) Mean
  cytotoxicity at 1 µM: 3.03%
[3]; Mus musculus, B16-F10, 1 uM, 48 hours, read-out: AnnV−DAPI+ (%) Mean
  cytotoxicity at 1 µM: 2.79%
[3]; Mus musculus, B16-F10, 1 uM, 48 hours, read-out: AnnV−DAPI− (%) Mean
  viability at 1 µM: 91.2%

Source: US20210154281A1, “CELL-BASED CANCER VACCINES AND CANCER THERAPIES” (Massachusetts Institute of Technology, priority 2019, published 2021)
